Experimental data from US11618743B2, “Herbicidal compounds” (SYNGENTA PARTICIPATIONS AG, priority 2017, dated 2023).

Legend:
Experiment in all cases: Post-emergence efficacy, Method A
Type in all cases: in vivo
[1] = tested on: Amaranthus palmeri (AMAPA); settings: Application rate 500 g/Ha, evaluated after 13 days; for Control of weed species after post-emergence application, AMAPA: 100=total damage to plant, 0=no damage; for Control of weed species AMAPA after post-emergence application (100=total damage to plant; 0=no damage to plant): Method A
Outline: (§1)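 After 14 days' growth in pots, plants were treated by spray with compound diluted from a 50 g/l IF50 stock concentrate into 0.25% or 1% Empicol ESC70 + 1% ammonium sulphate. Thirteen days later, injury was scored 0–100.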

[2] = tested on: Chenopodium album (CHEAL); settings: Application rate 500 g/Ha, evaluated after 13 days; for Control of weed species after post-emergence application, CHEAL: 100=total damage to plant, 0=no damage; for Control of weed species CHEAL after post-emergence application (100=total damage to plant; 0=no damage to plant): Method A
Outline: as §1

[3] = tested on: Digitaria sanguinalis (DIGSA); settings: Application rate 500 g/Ha, evaluated after 13 days; for Control of weed species after post-emergence application, DIGSA: 100=total damage to plant, 0=no damage; for Control of weed species DIGSA after post-emergence application (100=total damage to plant; 0=no damage to plant): Method A
Outline: as §1

[4] = tested on: Echinochloa crus-galli (ECHCG); settings: Application rate 500 g/Ha, evaluated after 13 days; for Control of weed species after post-emergence application, ECHCG: 100=total damage to plant, 0=no damage; for Control of weed species ECHCG after post-emergence application (100=total damage to plant; 0=no damage to plant): Method A
Outline: as §1

Eleusine indica (ELEIN) = settings: Application rate 500 g/Ha, evaluated after 13 days; for Control of weed species after post-emergence application, ELEIN: 100=total damage to plant, 0=no damage; for Control of weed species ELEIN after post-emergence application (100=total damage to plant; 0=no damage to plant): Method A
Outline: as §1

[5] = tested on: Euphorbia heterophylla (EPHHL); settings: Application rate 500 g/Ha, evaluated after 13 days; for Control of weed species after post-emergence application, EPHHL: 100=total damage to plant, 0=no damage; for Control of weed species EPHHL after post-emergence application (100=total damage to plant; 0=no damage to plant): Method A
Outline: as §1

[6] = tested on: Ipomoea hederacea (IPOHE); settings: Application rate 500 g/Ha, evaluated after 13 days; for Control of weed species after post-emergence application, IPOHE: 100=total damage to plant, 0=no damage
Outline: as §1

Lolium perenne (LOLPE) = settings: Application rate 500 g/Ha, evaluated after 13 days; for Control of weed species after post-emergence application, LOLPE: 100=total damage to plant, 0=no damage; for Control of weed species LOLPE after post-emergence application (100=total damage to plant; 0=no damage to plant): Method A
Outline: as §1

Setaria faberi (SETFA) = settings: Application rate 500 g/Ha, evaluated after 13 days; for Control of weed species after post-emergence application, SETFA: 100=total damage to plant, 0=no damage; for Control of weed species SETFA after post-emergence application (100=total damage to plant; 0=no damage to plant): Method A
Outline: as §1

Compound | Control of weed species after post-emergence application, AMAPA [1] | Control of weed species after post-emergence application, CHEAL [2] | Control of weed species after post-emergence application, DIGSA [3] | Control of weed species after post-emergence application, ECHCG [4] | Control of weed species after post-emergence application, ELEIN (Eleusine indica (ELEIN)) | Control of weed species after post-emergence application, EPHHL [5] | Control of weed species after post-emergence application, IPOHE [6] | Control of weed species after post-emergence application, LOLPE (Lolium perenne (LOLPE)) | Control of weed species after post-emergence application, SETFA (Setaria faberi (SETFA)) | Control of weed species AMAPA after post-emergence application (100=total damage to plant; 0=no damage to plant) [1] | Control of weed species CHEAL after post-emergence application (100=total damage to plant; 0=no damage to plant) [2] | Control of weed species DIGSA after post-emergence application (100=total damage to plant; 0=no damage to plant) [3] | Control of weed species ECHCG after post-emergence application (100=total damage to plant; 0=no damage to plant) [4] | Control of weed species ELEIN after post-emergence application (100=total damage to plant; 0=no damage to plant) (Eleusine indica (ELEIN)) | Control of weed species EPHHL after post-emergence application (100=total damage to plant; 0=no damage to plant) [5] | Control of weed species IPOHE after post-emergence application (100=total damage to plant; 0=no damage to plant) ([6]; Method A) | Control of weed species LOLPE after post-emergence application (100=total damage to plant; 0=no damage to plant) (Lolium perenne (LOLPE)) | Control of weed species SETFA after post-emergence application (100=total damage to plant; 0=no damage to plant) (Setaria faberi (SETFA))
CCOP(=O)(CCC[n+]1ccc(-c2ncccn2)cn1)OCC.O=C([O-])C(F)(F)F [Compound A204] | 10 | 20 | 0 | 0 | 0 | 0 | 0 | 0 | 0 |  |  |  |  |  |  |  |  | 
CCOP(=O)(O)CC[n+]1ccc(-c2ncccn2)cn1.O=C([O-])C(F)(F)F [Compound A113, ethoxy-[2-(4-pyrimidin-2-ylpyridazin-1-ium-1-yl)ethyl]phosphinate] |  |  |  |  |  |  |  |  |  | 40 | 90 | 60 | 60 | 40 | 100 | 60 | 10 | 50
O=C(O)CC[n+]1ccc(-c2ncc(Cl)c(=O)[nH]2)cn1 [Compound A161, 3-[4-(5-chloro-6-oxo-1H-pyrimidin-2-yl)pyridazin-1-ium-1-yl]propanoic acid 2,2,2-trifluoroacetate] | 30 | 70 | 20 | 20 | 20 | 50 | 20 | 10 | 10 |  |  |  |  |  |  |  |  | 
O=C(O)CC[n+]1ccc(-c2ncccn2)cn1.[Cl-] [Compound A26, 3-(4-pyrimidin-2-ylpyridazin-1-ium-1-yl)propanoic Acid Chloride] |  |  |  |  |  |  |  |  |  |  |  |  | 100 |  |  |  | 90 | 100
CCOP(=O)(C[n+]1ccc(-c2ncccn2)cn1)OCC.O=C([O-])C(F)(F)F [Compound A230, 1-(diethoxyphosphorylmethyl)-4-pyrimidin-2-yl-pyridazin-1-ium 2,2,2-trifluoroacetate] | 50 | 60 | 70 | 60 | 10 |  | 20 | 0 | 50 |  |  |  |  |  |  |  |  | 
O=C(O)CC[n+]1ccc(-c2ncccn2)cn1.O=C([O-])C(F)(F)F [Compound A125, 3-(4-pyrimidin-2-ylpyridazin-1-ium-1-yl)propanoic acid 2,2,2-trifluoroacetate] |  |  |  |  |  |  |  |  |  |  |  |  |  |  |  |  | 90 | 
O=C(O)CC[n+]1ccc(-c2ncc(F)cc2F)cn1.O=C([O-])C(F)(F)F [Compound A144] |  |  |  |  |  |  |  |  |  | 20 | 10 | 30 | 20 | 20 | 20 |  |  | 20
CCOP(=O)(O)CCC[n+]1ccc(-c2ncccn2)cn1 [Compound A232] | 100 | 90 | 90 | 100 | 50 |  | 0 | 20 | 80 |  |  |  |  |  |  |  |  | 
CC(CC(=O)O)[n+]1ccc(-c2ccncn2)cn1.O=C([O-])C(F)(F)F (stereo not drawn) [Compound A172] | 30 | 60 | 80 | 50 | 70 | 50 |  |  | 50 |  |  |  |  |  |  |  |  | 
COC(=O)CC[n+]1ccc(-c2ncccn2)cn1.O=C([O-])C(F)(F)F [Compound A54, methyl 3-(4-pyrimidin-2-ylpyridazin-1-ium-1-yl)propanoate 2,2,2-trifluoroacetate] |  |  |  |  |  |  |  |  |  | 90 | 90 | 100 | 90 | 100 | 70 |  |  | 100
Cc1n[n+](CCC(=O)O)ccc1-c1ncccn1.O=C([O-])C(F)(F)F [Compound A132] |  |  |  |  |  |  |  |  |  | 90 | 30 | 90 | 70 | 90 | 30 |  |  | 100
CC(C)(C[n+]1ccc(-c2ccncn2)cn1)C(=O)O.O=C([O-])C(F)(F)F [Compound A167] | 20 | 70 | 50 | 60 | 80 | 90 |  |  | 40 |  |  |  |  |  |  |  |  | 
CC(CC(=O)O)[n+]1ccc(-c2ncccn2)cn1.O=C([O-])C(F)(F)F (stereo not drawn) [Compound A40, 3-(4-pyrimidin-2-ylpyridazin-1-ium-1-yl)butanoic acid 2,2,2-trifluoroacetate] |  |  |  |  |  |  |  |  |  | 90 | 70 | 90 | 90 | 90 | 90 |  |  | 100
O=C(O)CC[n+]1ccc(-c2ccnc(C(F)(F)F)c2)cn1.O=C([O-])C(F)(F)F [Compound A166] | 30 | 50 | 70 | 50 | 60 | 60 |  |  | 40 |  |  |  |  |  |  |  |  | 
